From paper PMC11583740, “Genotype-specific effects of elamipretide in patients with primary mitochondrial myopathy: a post hoc analysis of the MMPOWER-3 trial” (Orphanet Journal of Rare Diseases, 2024)

How the values were obtained:
[1] = system: subjects with Barth Syndrome; details: after approximately 36 weeks in the 168-week open-label phase; n = 8; p = 0.02; cited from earlier work
From the text: NuPOWER was designed to evaluate the efficacy and tolerability of elamipretide in nPMD subjects, with the primary efficacy endpoint being distance walked (meters) on the 6MWT [11]. Elamipretide was also studied in subjects with Barth Syndrome (TAZPOWER, SPIBA-201, NCT03098797), which ...

[2] = system: adult patients with primary mitochondrial myopathy (PMM); test: Six-Minute Walk Test (6MWT) in the MMPOWER-3 Phase 3 trial, post hoc analysis by genotype; type: in vivo, human
Protocol: Full details of MMPOWER-3 have been previously described. In brief, MMPOWER-3 was a 24-week, randomized (1:1), double-blind, parallel-group, placebo-controlled clinical trial for adult patients with PMM, in which subjects received elamipretide 40 mg subcutaneously once daily or placebo [6]. In the original analysis of MMPOWER-3, subjects were stratified by the type of pathogenic DNA variant (nDNA vs mtDNA) determined to be the primary cause of PMM as approved by the adjudication committee. Pathogenic DNA variants causing PMM were subclassified as causing mtDNA or nDNA disorders. The prespecified exploratory analysis was conducted to further examine the effects of elamipretide on the change from baseline to week 24 in the 6MWT by genetic subgroups. Subject demographics at baseline have been previously published in detail.
In the original analysis of MMPOWER-3, the efficacy of elamipretide was analyzed by genetic pathogenic variant subclass (mtDNA vs. nDNA) utilizing a mixed model repeated measures (MMRM). In the new exploratory analysis, the effect of elamipretide on the least squares (LS) mean change from baseline in distance walked on the 6MWT at 4 weeks, 12 weeks, and end of treatment (week 24) was examined as a function of gene variants using subjects from the MMPOWER-3 per-protocol population who successfully completed the trial. The analysis evaluated 6MWT results by specific mtDNA and nDNA genotypes. Efficacy in the mtDNA replisome subgroup was further assessed by the presence of the chronic progressive external ophthalmoplegia (CPEO) as a phenotype.

[3] = system: adult patients with primary mitochondrial myopathy (PMM); details: elamipretide 40 mg s.c. once daily; nDNA cohort n = 59; placebo 0.3 m; p = 0.03; previously published post-hoc analysis; cited from earlier work
From the text: Baseline functional characteristics of these patients is described elsewhere. At week 24, subjects in ...

[4] = system: adult patients with primary mitochondrial myopathy (PMM); details: post-hoc genetic subgroup analysis of the co-primary endpoint; previously published; cited from earlier work
Protocol: Elamipretide is the first experimental therapeutic compound progressing to a Phase 3 clinical trial in patients with PMM (MMPOWER-3). This trial followed the Phase 1/2 (MMPOWER-1) and Phase 2 (MMPOWER-2) clinical trials, in which treatment with elamipretide was analyzed in patients with PMM.

elamipretide
Improvement in 6MWT, Barth Syndrome [1]: 95.9 m
6MWT change from baseline, MT-TL1 pathogenic variants ([2]; elamipretide 40 mg s.c. once daily, 24 weeks, n = 21, placebo (n = 28) 42.4 m): 25.3 m
6MWT improvement (change from baseline), mtDNA replisome post-hoc cohort ([2]; elamipretide 40 mg s.c. once daily, mtDNA replisome cohort, placebo 2.0 ± 8.6 m, p = 0.06): 25.2 ± 8.7 m
LS mean (SE) change from baseline in 6MWT, replisome variants with CPEO phenotype ([2]; elamipretide 40 mg s.c. once daily, week 24, n = 18, baseline mean 316.5 ± 17.5, placebo (n = 14) −8.0 ± 10.7 m, p = 0.0024): 37.3 ± 9.5 m
LS mean (SE) change from baseline in distance walked on 6MWT, mtDNA pathogenic variants ([2]; elamipretide 40 mg s.c. once daily, week 24, n = 73, placebo (n = 73) 24.1 ± 6.3 m): 14.9 ± 6.4 m
Between-group difference in 6MWT change, mtDNA pathogenic variants ([2]; week 24, elamipretide vs placebo, difference in favor of placebo): 9.2 m
6MWT difference elamipretide vs placebo, single mtDNA deletions ([2]; week 24, n = 49): no observable differences
6MWT improvement, nDNA cohort [3]: 25.2 m
PMMSA TFS, nDNA cohort compared with mtDNA cohort [4]: did not demonstrate a differential effect
